# From paper PMC7018972, “Novel and selective inactivators of Triosephosphate isomerase with anti-trematode activity” (Scientific Reports, 2020)
# Biological target: Fasciola hepatica TIM (FhTIM) (Fasciola hepatica, UniProt S4UI50)
# Assay: Inhibition of recombinant FhTIM, coupled enzyme assay
# Type: biochemical
# Conditions: Figure 1, ranges of inhibitory activity; read-out: IC50 range
# Experimental: Expression and purification of proteins: FhTIM, RabbitTIM and HsTIM were expressed in Escherichia coli and purified as described in the literature[31],[37]. […] Before use, extensive dialysis against 100 mM triethanolamine/10 mM EDTA (pH 7.4) was performed. […] Enzymatic activity was determined following the conversion of glyceraldehydes-3-phosphate into dihydroxyacetone phosphate in a coupled enzyme assay. The decrease in absorbance at 340 nm was followed in a multiplate reader VarioskanTM Flash Multimode Reader (Thermo ScientificTM, Waltham, MA, USA) at 38 °C. The reaction mixture (1 mL, pH 7.4) contained 100 mM triethanolamine, 10 mM EDTA, 0.2 mM NADH, 1 mM glyceraldehydes-3-phosphate and 0.9 units of α-glycerol phosphate dehydrogenase. The reaction was initiated by the addition of 5 ng/mL of the TIM of interest. For the inhibition studies, TIM was incubated at a concentration of 5 mg/mL in a buffer containing 100 mM triethanolamine, 10 mM EDTA, pH 7.4 and 10% of DMSO at 37 °C for 1 h. The mixture also contained the compounds, dissolved in DMSO, at the indicated concentrations. After 1 h, 10 µL were withdrawn and added to a final volume of 100 µL of the reaction mixture for the activity assay. The inhibition assay was performed in a 96-well microplate. […] The experiments were performed in triplicate in two independent experiments.
# Chain of Fasciola hepatica TIM (FhTIM) (S4UI50 entry or part of it): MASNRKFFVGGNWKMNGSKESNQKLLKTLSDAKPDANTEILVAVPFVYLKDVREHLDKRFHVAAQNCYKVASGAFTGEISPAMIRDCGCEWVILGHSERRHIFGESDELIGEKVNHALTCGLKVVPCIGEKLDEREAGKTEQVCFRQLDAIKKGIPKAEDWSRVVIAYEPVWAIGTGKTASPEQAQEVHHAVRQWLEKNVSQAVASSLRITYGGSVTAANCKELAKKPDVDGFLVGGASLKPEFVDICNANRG
row,IC50,SMILES
1,< 50 µM,[O-][n+]1c2ccc(O)cc2[n+]([O-])c2cc(Cl)c(Cl)cc21 [Compound 183]

# Same assay, conditions: Table 1S, screening of 340 compounds in FhTIM; table head prints no unit, µM per b8/b9
row,SMILES,IC50
1,Clc1ccc(-c2c[se]c(=NN=CC=Cc3ccco3)n2CCN2CCOCC2)cc1 [Compound 1097],50 to 100 µM

# Same assay, conditions: Table 1S, screening of 340 compounds in FhTIM; table head prints no unit, µM per b8/b9; read-out: IC50
row,IC50,SMILES
1,50 to 100 µM,S=C(NN=CC=CC=Cc1cccs1)Nc1ccccc1 [Compound 310]
2,> 100 µM,C=CCn1c(C(=O)O)csc1=NN=C/C=C/c1ccc(C)o1 [Compound 789]
3,> 100 µM,NNC(=O)Nc1ccc(Cl)cc1 [Compound 397]
4,> 100 µM,Cc1nnc(C)[n+]([O-])c1C=Cc1ccc(N(C)C)cc1 [Compound 213]
5,100 µM,N#CSc1ccc(C=O)cc1[N+](=O)[O-] [Compound 670]
6,> 100 µM,O=[N+]([O-])c1ccc(C=NN=c2scc(-c3ccccc3)n2-c2ccccc2)s1 [Compound 268]
7,> 100 µM,C=CCn1c(-c2csc(=NN=CC=Cc3cccs3)n2CC=C)csc1=NN=CC=Cc1cccs1 [Compound 1118]
8,> 100 µM,C(=Cc1ccco1)C=NN1CCN(Cc2ccccc2)CC1 [Compound 874]
9,50 to 100 µM,C=CCn1c(-c2ccc(Br)cc2)csc1=NN=C/C=C/c1cccs1 [Compound 1137]
10,50 to 100 µM,C=CCn1c(-c2ccc(Cl)cc2)csc1=NN=C/C=C/C=C/c1cccs1 [Compound 311]
11,> 100 µM,Nc1nc(-c2ccc(Cl)cc2)cs1 [Compound 813]
12,> 100 µM,O=C1CSC(=NN=CC=Cc2ccco2)N1c1ccccc1 [Compound 282]
13,> 100 µM,CC1(C)[N+]([O-])=c2ccc(C3OCCO3)cc2=[N+]1[O-] [Compound 105]
14,> 100 µM,CCCCN1C(=O)C(=Cc2ccc([N+](=O)[O-])cc2)C(=O)N(CCCC)S1(=O)=O [Compound 1165]
15,> 100 µM,O=[N+]([O-])c1ccc2c(c1)c(O)nn2CCOCCBr [Compound 517]
16,> 100 µM,CN1CC(=Cc2ccccc2)C(=O)C(=Cc2ccccc2)C1 [Compound 357]
17,> 100 µM,N#Cc1c(-c2ccccc2)no[n+]1[O-] [Compound 650]
18,> 100 µM,C=CCn1c(-c2ccc(Cl)cc2)csc1=NN=CC=Cc1ccc(C)o1 [Compound 872]
19,> 100 µM,CCOC(=O)On1c(C(=O)OCC)nc2ccc([N+](=O)[O-])cc21 [Compound 660]
20,> 100 µM,COc1nn(CCOCCI)c2ccc([N+](=O)[O-])cc12 [Compound 514]
21,> 100 µM,C(=NN=c1scc(-c2ccccc2)n1-c1ccccc1)c1ccccc1 [Compound 270]
22,> 100 µM,NNC(=O)c1ccc2c(c1)OCO2 [Compound 711]

row,IC50,SMILES
1,> 100 µM,C(=CC=NN=c1scc(-c2ccccc2)n1-c1ccccc1)C=Cc1ccco1 [Compound 814]
2,> 100 µM,CC(=NN=c1[nH]c(C(=O)O)cs1)C1CCC2C3CC=C4CC(O)CCC4(C)C3CCC12C (centres unmarked) [Compound 1258]
3,> 100 µM,C=CCn1c(C)csc1=NN=CC=Cc1cccs1 [Compound 1128]
4,> 100 µM,CC(C)OC(CC[P+](c1ccccc1)(c1ccccc1)c1ccccc1)OC(C)C [Compound 497]
5,> 100 µM,Nc1nc(-c2ccccc2)cs1 [Compound 810]
6,> 100 µM,C=CCNC(=S)NN=Cc1ccc2ccccc2c1 [Compound 296]
7,> 100 µM,CN(C/C=C/c1ccccc1)CCOCCn1nc(OCc2ccccc2)c2cc([N+](=O)[O-])ccc21 [Compound 508]
8,50 to 100 µM,CC(/C=N/N1CCSCC1)=C\c1ccco1 [Compound 878]
9,> 100 µM,O=S(=O)(O)c1ccc(C=NN=c2scc(-c3csc(=NN=Cc4ccccc4)n3-c3ccccc3)n2-c2ccccc2)o1 [Compound 784]
10,> 100 µM,Cc1nnc[n+]([O-])c1C=Cc1ccc([N+](=O)[O-])o1 [Compound 359]
11,> 100 µM,O=[N+]([O-])c1ccc2c(c1)c(O)nn2Cc1ccccc1CN1CCCCC1 [Compound 456]
12,> 100 µM,C=CCN(C(C)=O)C1=NN(C(C)=O)C(C=Cc2ccco2)S1 (centres unmarked) [Compound 285]
13,50 to 100 µM,C=CCn1c(-c2ccccc2)csc1=NN=CC=Cc1cccs1 [Compound 875]
14,> 100 µM,COc1cc(/C=C/C(=O)CC(=O)/C=C/c2cc(OC)c3oc(=O)cc(C)c3c2)ccc1O [Compound 915]
15,50 to 100 µM,O=C1/C(=C/C=C/c2ccco2)CCC/C1=C\C=C\c1ccco1 [Compound 1019]
16,> 100 µM,CCCCOC(=O)c1nc2ccc([N+](=O)[O-])cc2n1O [Compound 550]
17,100 µM,O=[N+]([O-])c1cc(CI)ccc1F [Compound 769]
18,> 100 µM,COc1ccc(C=Cc2c(C)[n+]([O-])nc[n+]2[O-])cc1 [Compound 218]
19,> 100 µM,CCCN(CCCCCn1nc(OCc2ccccc2)c2cc([N+](=O)[O-])ccc21)CCC(C)C1CC=C(C)CC1 (centres unmarked) [Compound 199]
20,> 100 µM,C=CCNC(=S)NN=C(C=CC=Cc1ccc(C)o1)C=CC=Cc1ccc(C)o1 [Compound 900]
21,> 100 µM,C=CCNC(=S)NN=Cc1ccc([N+](=O)[O-])s1 [Compound 136]
22,> 100 µM,COc1ccc(NC(=O)CCl)cc1 [Compound 379]

row,IC50,SMILES
1,> 100 µM,C=CCn1c(C(=O)CN2CCSCC2)csc1=NN=CC=Cc1ccco1 [Compound 1116]
2,> 100 µM,Cc1c(C=Cc2ccc([N+](=O)[O-])s2)ncn[n+]1[O-] [Compound 214]
3,> 100 µM,[O-][n+]1onc2ccc(CN3CCN(CC=Cc4ccccc4)CC3)cc21 [Compound 609]
4,50 to 100 µM,C=CCn1c(-c2ccccc2)csc1=NN=Cc1ccc2ccccc2c1 [Compound 908]
5,> 100 µM,C=CCn1c(-c2ccc(Cl)cc2)csc1=NN=Cc1ccc(Cl)cc1 [Compound 265]
6,50 to 100 µM,O=[N+]([O-])c1ccc2c(c1)c(O)nn2CCCCCN1CCCCC1 [Compound 481]
7,> 100 µM,O=C1CSC(=NN=Cc2ccc([N+](=O)[O-])s2)N1c1ccccc1 [Compound 262]
8,> 100 µM,N#CSCC(=O)c1ccccc1 [Compound 811]
9,> 100 µM,O=[N+]([O-])c1ccc2c(c1)c(OCc1ccccc1)nn2CCCCCN1CCN(CC=Cc2ccccc2)CC1 [Compound 505]
10,> 100 µM,C=CCNC(=S)NN=CC=Cc1ccccc1 [Compound 300]
11,> 100 µM,CC(=O)N(C1=NN(C(C)=O)C(c2cccs2)S1)c1ccccc1 (centres unmarked) [Compound 284]
12,> 100 µM,[O-][N+]1=c2ccccc2=[N+]([O-])C12CCCC2 [Compound 633]
13,> 100 µM,COc1nn(CCOCCN2CCN(CC=Cc3ccccc3)CC2)c2ccc([N+](=O)[O-])cc12 [Compound 198]
14,> 100 µM,C(=Cc1ccco1)C=NN1CCN(CC=Cc2ccccc2)CC1 [Compound 912]
15,> 100 µM,COc1ccc(C=Cc2cnnc[n+]2[O-])cc1 [Compound 365]
16,50 to 100 µM,NC1=NC(=O)N=C(N)C1=Cc1ccco1 [Compound 575]
17,> 100 µM,[O-][n+]1onc2ncc(Cl)cc21 [Compound 671]
18,> 100 µM,ON=Cc1ccc(O)cc1 [Compound 1113]
19,> 100 µM,C=CCn1c(C(=O)O)csc1=NN=CC=Cc1cccs1 [Compound 1126]
20,> 100 µM,C=CCn1c(-c2ccc(Cl)cc2)csc1=NN=Cc1ccc2no[n+]([O-])c2c1 [Compound 304]

row,SMILES,IC50
1,[Se]=C(NCCN1CCOCC1)NN=CC=Cc1ccco1 [Compound 1147],50 to 100 µM
2,Nc1ccc([N+](=O)[O-])cc1 [Compound 1196],> 100 µM

# Same assay, conditions: recombinant FhTIM, 1 h incubation with compound at 37 °C; read-out: IC50
row,IC50,SMILES
1,79 ± 7 µM,S=C(NN=CC=CC=Cc1cccs1)Nc1ccccc1 [Compound 310]
2,25 ± 3 µM,[O-][n+]1c2ccc(O)cc2[n+]([O-])c2cc(Cl)c(Cl)cc21 [Compound 183]
3,50 ± 6 µM,Nc1ccc2nc3ccc(F)cc3nc2c1 [Compound 1149]
